Results published in patent US5462926A (Biomeasure, Inc., priority 1993, dated 1995).

Target: GRP receptor (Rattus norvegicus, UniProt P52500)
Assay: Amylase release from rat pancreatic acini (alone or Bn-stimulated)
Type: cell-based
Parameters: from tissue; host or cells: dispersed pancreatic acini
Conditions: for Amylase Release, analog Alone (10 μM): analog 10 μM alone, control 4 ± 1; for Amylase Release, analog Plus Bn (0.3 nM): analog 10 μM plus Bn 0.3 nM, Bn without analog 15 ± 1
Method: pancreatic acini or [^3 H]myo[2H]inositolloaded NMBR transfected cell
were incubated either with no additives, the somatostatin octapeptide
analog, Bn, or NMB, or a combination for 30 min at 37° C.. Amylase
release from pancreatic acini was expressed at the indicated percent of
the total cellular amylase released during the incubation. [^3 H]IP i
expressed in dpm's. To test for inhibitory effects, the effect of
somatostatin analog (10 μM) was determined on 0.3 nM Bnstimulated

GRP receptor, sequence (P52500 whole entry): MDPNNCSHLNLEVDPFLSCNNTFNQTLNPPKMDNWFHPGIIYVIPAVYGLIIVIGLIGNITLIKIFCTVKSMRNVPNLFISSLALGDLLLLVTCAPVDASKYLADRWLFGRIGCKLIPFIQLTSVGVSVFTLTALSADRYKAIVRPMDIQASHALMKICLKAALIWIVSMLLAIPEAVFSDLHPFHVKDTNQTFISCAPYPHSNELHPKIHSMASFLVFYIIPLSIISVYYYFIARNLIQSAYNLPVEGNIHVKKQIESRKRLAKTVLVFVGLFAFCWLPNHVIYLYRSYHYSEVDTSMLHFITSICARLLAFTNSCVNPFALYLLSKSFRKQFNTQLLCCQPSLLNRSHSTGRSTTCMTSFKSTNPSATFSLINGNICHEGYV

C[C@H](N)C(=O)NCC(=O)N[C@H]1CSSC[C@@H](C(=O)O)NC(=O)[C@H](CO)NC(=O)[C@H]([C@@H](C)O)NC(=O)[C@H](Cc2ccccc2)NC(=O)[C@H]([C@@H](C)O)NC(=O)[C@H](CCCCN)NC(=O)[C@H](Cc2c[nH]c3ccccc23)NC(=O)[C@H](Cc2ccccc2)NC(=O)[C@H](Cc2ccccc2)NC(=O)[C@H](CC(N)=O)NC(=O)[C@H](CCCCN)NC1=O [SS-14, somatostatin-14, reference compound]
Amylase Release, analog Alone (10 μM): 3 ± 1 % total | Amylase Release, analog Plus Bn (0.3 nM): 12 ± 1 % total

CSCC[C@H](NC(=O)[C@H](C)NC(=O)[C@@H]1CCCN1C(=O)[C@H](CC(N)=O)NC(=O)[C@H](CO)NC(=O)[C@H](CC(N)=O)NC(=O)[C@H](C)NC(=O)[C@@H](N)CO)C(=O)N[C@@H](C)C(=O)N1CCC[C@H]1C(=O)N[C@@H](CCCNC(=N)N)C(=O)N[C@@H](CCC(=O)O)C(=O)N[C@@H](CCCNC(=N)N)C(=O)N[C@@H](CCCCN)C(=O)N[C@@H](C)C(=O)NCC(=O)N[C@H]1CSSC[C@@H](C(=O)O)NC(=O)[C@H](CO)NC(=O)[C@H]([C@@H](C)O)NC(=O)[C@H](Cc2ccccc2)NC(=O)[C@H]([C@@H](C)O)NC(=O)[C@H](CCCCN)NC(=O)[C@H](Cc2c[nH]c3ccccc23)NC(=O)[C@H](Cc2ccccc2)NC(=O)[C@H](Cc2ccccc2)NC(=O)[C@H](CC(N)=O)NC(=O)[C@H](CCCCN)NC1=O [SS-28, somatostatin-28, reference compound]
Amylase Release, analog Alone (10 μM): 4 ± 1 % total | Amylase Release, analog Plus Bn (0.3 nM): 10 ± 1 % total
